Assay results from ChEMBL document CHEMBL4325825, “Medicinal chemistry of acridine and its analogues” (Medchemcomm, 2018).
Blank lines part the entries; values can stand above or below the compound they belong to. Where a SMILES comes first, the peptide text is derived from it. The star is where a group is joined. X1 = CCN(CC)CCCCC(C)Nc1c2ccccc2nc2c(C(=O)NCCCO/N=C/C(=O)*)cccc12

Experiments:
Calf thymus DNA = assay: Binding affinity to calf thymus DNA; assay type: nucleic-acid assay; conditions: Bos taurus
Acetylcholinesterase [1] = target: Acetylcholinesterase (Homo sapiens, UniProt P22303); assay: Inhibition of AChE (unknown origin)
Acetylcholinesterase (Homo sapiens, UniProt P22303), sequence (P22303 whole entry): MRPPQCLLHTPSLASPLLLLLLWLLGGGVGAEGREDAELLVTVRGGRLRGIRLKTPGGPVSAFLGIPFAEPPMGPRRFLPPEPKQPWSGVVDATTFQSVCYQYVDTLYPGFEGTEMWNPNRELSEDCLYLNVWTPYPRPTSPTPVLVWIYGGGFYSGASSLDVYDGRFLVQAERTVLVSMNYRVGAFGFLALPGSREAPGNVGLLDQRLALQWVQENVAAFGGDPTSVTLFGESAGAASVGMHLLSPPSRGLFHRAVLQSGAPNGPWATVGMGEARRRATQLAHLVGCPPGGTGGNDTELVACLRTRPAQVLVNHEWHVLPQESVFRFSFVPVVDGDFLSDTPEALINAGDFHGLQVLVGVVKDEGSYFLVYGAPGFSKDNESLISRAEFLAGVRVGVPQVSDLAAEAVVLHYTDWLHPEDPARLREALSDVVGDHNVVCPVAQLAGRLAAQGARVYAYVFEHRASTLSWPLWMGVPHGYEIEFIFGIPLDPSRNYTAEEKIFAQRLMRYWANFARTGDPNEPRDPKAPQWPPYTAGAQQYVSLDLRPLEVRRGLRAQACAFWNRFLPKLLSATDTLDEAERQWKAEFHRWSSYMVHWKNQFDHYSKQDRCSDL

Acetylcholinesterase [2] = target: T1, Acetylcholinesterase (Mus musculus, UniProt P21836); assay: Inhibition of AChE in mouse brain; assay type: tissue-based
T1 sequence (P21836 whole entry): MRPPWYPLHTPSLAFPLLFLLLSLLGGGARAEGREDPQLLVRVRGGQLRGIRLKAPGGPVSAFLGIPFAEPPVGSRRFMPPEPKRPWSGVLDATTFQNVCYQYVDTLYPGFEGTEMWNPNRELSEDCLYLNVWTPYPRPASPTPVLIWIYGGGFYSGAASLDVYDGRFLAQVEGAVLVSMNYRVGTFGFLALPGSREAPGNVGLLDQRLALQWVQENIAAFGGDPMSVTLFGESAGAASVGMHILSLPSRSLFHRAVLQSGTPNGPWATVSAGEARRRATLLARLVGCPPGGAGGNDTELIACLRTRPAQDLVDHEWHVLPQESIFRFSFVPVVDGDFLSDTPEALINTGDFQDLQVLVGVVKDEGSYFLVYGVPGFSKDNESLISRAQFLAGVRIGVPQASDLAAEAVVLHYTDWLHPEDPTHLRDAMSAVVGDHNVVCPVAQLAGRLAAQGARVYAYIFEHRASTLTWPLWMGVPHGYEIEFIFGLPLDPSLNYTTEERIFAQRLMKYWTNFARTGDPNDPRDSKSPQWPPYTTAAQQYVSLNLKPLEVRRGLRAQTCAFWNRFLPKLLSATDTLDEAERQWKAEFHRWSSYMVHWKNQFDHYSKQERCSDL

DNA = assay: Binding affinity to DNA (unknown origin); assay type: nucleic-acid assay
Cholinesterase = Cholinesterase (Homo sapiens, UniProt P06276); assay: Inhibition of BuChE (unknown origin)
Cholinesterase, sequence (P06276 whole entry): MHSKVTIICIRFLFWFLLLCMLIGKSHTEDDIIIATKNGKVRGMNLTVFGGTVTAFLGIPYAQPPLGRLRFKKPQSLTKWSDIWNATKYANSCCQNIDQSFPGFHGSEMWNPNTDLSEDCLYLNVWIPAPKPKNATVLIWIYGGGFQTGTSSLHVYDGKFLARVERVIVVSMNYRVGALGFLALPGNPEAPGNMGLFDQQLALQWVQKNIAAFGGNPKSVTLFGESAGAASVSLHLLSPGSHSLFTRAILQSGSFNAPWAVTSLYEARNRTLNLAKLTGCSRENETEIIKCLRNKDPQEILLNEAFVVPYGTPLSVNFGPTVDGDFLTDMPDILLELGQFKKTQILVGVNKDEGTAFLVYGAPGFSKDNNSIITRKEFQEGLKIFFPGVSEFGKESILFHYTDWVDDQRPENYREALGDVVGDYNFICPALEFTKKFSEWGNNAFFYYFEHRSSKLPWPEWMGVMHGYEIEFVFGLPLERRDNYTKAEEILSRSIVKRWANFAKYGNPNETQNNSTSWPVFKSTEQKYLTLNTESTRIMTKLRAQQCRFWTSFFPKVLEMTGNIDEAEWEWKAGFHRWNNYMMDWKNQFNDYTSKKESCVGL

[3] = target: Amyloid-beta precursor protein (Homo sapiens, UniProt P05067); assay: Inhibition of amyloid beta (1 to 40) (unknown origin) self aggregation
Amyloid-beta precursor protein, sequence (P05067 whole entry): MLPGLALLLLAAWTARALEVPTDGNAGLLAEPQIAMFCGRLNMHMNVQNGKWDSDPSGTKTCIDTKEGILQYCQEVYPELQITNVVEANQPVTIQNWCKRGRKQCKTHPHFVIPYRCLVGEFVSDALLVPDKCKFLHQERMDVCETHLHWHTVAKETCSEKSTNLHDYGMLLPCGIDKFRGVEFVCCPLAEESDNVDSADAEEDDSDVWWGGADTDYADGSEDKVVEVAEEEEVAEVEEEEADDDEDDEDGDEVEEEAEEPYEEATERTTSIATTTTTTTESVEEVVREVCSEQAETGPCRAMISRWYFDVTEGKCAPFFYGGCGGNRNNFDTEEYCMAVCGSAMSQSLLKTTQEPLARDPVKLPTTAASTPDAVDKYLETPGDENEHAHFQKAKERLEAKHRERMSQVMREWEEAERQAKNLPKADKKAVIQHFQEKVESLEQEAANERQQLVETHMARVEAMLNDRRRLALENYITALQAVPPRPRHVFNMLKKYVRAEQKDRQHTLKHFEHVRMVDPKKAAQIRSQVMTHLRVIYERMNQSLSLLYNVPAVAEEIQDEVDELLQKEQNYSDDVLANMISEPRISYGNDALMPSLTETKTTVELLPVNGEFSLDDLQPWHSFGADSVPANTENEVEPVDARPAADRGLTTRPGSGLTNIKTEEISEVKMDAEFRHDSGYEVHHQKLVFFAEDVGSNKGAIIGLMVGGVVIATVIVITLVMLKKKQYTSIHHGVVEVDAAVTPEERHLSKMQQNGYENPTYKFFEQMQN

K (Calf thymus DNA): 10000 to 1e+06 M⁻¹
Compound: CCOc1ccc2nc3cc(N)ccc3c(NCCCNCCCNCCn3cnc4c(N)ncnc43)c2c1

K (Calf thymus DNA): 10000 to 1e+06 M⁻¹
Compound: COc1ccc2c(NCCCNCCCNCCn3cnc4c(N)nc(N)nc43)c3cc(Cl)ccc3nc2c1

K (Calf thymus DNA): 10000 to 1e+06 M⁻¹
Compound: COc1cc2nc3cc([N+](=O)[O-])ccc3c(NCCCNCCCNCCn3cnc4c(N)ncnc43)c2cc1OC

K (Calf thymus DNA): 10000 to 1e+06 M⁻¹
Compound: CCOc1ccc2nc3c(I)c(N)ccc3c(NCCCNCCCNCCn3cnc4c(N)ncnc43)c2c1

K (Calf thymus DNA): 10000 to 1e+06 M⁻¹
Compound: COc1ccc2nc3cc(Cl)ccc3c(NCCCNCCCNCCn3cnc4c(N)ncnc43)c2c1

Compound: Cc1cc(C)c(S(=O)(=O)Nc2ccc(C3C4=C(CC(C)(C)CC4=O)N(c4ccc(Br)cc4)C4=C3C(=O)CC(C)(C)C4)cc2)c(C)c1
IC50 (Acetylcholinesterase [1]): 140 nM

Compound: Fc1ccc(N2CCN(c3c4ccccc4nc4c(Cl)cccc34)CC2)cc1
IC50 (Acetylcholinesterase [2]): 330 nM

K (DNA): 1 ×10⁴ /M
Compound: CCOC(=O)c1c(/N=C/c2c3ccccc3nc3ccccc23)sc2c1CCC2

Compound: O=C(NCCCCCNc1c2c(nc3ccccc13)CCCC2)c1c2ccccc2nc2ccccc12
IC50 (Cholinesterase): 0.0017 nM
IC50 (Acetylcholinesterase [1]): 0.0076 nM

IC50 [3]: 2000 nM
Compound: CCN(CC)CCCCC(C)Nc1c2ccccc2nc2c(C(=O)NCCCO/N=C/C(=O)NCCCC[C@@H]3NC(=O)CNC(=O)[C@@H]4CCCN4C(=O)[C@H](CCCCN)NC(=O)[C@@H]4CCCN4C(=O)[C@H](CCCCN)NC(=O)CNC(=O)[C@@H]4CCCN4C(=O)[C@H](CCCCN)NC(=O)[C@@H]4CCCN4C3=O)cccc12 (stereo partly specified) (cyclo(GKPKPGK(X1)PKP))

K (DNA): 1 ×10⁴ /M
Compound: N#Cc1c(/N=C/c2c3ccccc3nc3ccccc23)sc2c1CCC2

Compound: O=C(/C=C/c1ccc([N+](=O)[O-])cc1)NCCCCCCNc1c2c(nc3ccccc13)CCCC2
IC50 (Cholinesterase): 6.5 nM
IC50 (Acetylcholinesterase [1]): 2.7 nM

K (DNA): 1 ×10⁴ /M
Compound: NC(=O)c1c(/N=C/c2c3ccccc3nc3ccccc23)sc2c1CCC2

K (DNA): 1 ×10⁴ /M
Compound: COc1ccc2nc3cc(Cl)ccc3c(Nc3sc4c(c3C#N)CCC4)c2c1
